The assay deals with BDF1 mice, B16 melanoma ip, median survival T/C. The assay is described as follows: NCI In Vivo Anticancer Drug Screen. Data for tumor model B16 Melanoma (intraperitoneal) in B6D2F1 (BDF1) mice. The settings on record: endpoint: median survival time, higher = longer survival. Summed up: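 In this screen, activity was judged from survival or tumor size in treated versus vehicle-treated tumor-bearing mice, reported as T/C.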

Setting [1] is: dose: 0.75 mg/kg/injection, schedule: Q01DX009 (ip), vehicle: saline.
[2] abbreviates: dose: 3.0 mg/kg/injection, schedule: Q01DX009 (ip), vehicle: saline.
Setting [3] is: dose: 12.5 mg/kg/injection, schedule: Q01DX009 (ip), vehicle: Klucel (hydroxypropylcellulose) (HPC).
[4] abbreviates: dose: 25.0 mg/kg/injection, schedule: Q01DX009 (ip), vehicle: Klucel (hydroxypropylcellulose) (HPC).
[5] abbreviates: dose: 50.0 mg/kg/injection, schedule: Q01DX009 (ip), vehicle: Klucel (hydroxypropylcellulose) (HPC).
The mark [6] stands for this setting: dose: 6.25 mg/kg/injection, schedule: Q01DX009 (ip), vehicle: Klucel (hydroxypropylcellulose) (HPC).
Setting [7] is: dose: 100.0 mg/kg/injection, schedule: Q01DX009 (ip), vehicle: Klucel (hydroxypropylcellulose) (HPC).
Setting [8] is: dose: 100.0 mg/kg/injection, schedule: Q04DX003 (ip), vehicle: Klucel (hydroxypropylcellulose) (HPC).
The mark [9] stands for this setting: dose: 200.0 mg/kg/injection, schedule: Q04DX003 (ip), vehicle: Klucel (hydroxypropylcellulose) (HPC).
The mark [10] stands for this setting: dose: 100.0 mg/kg/injection, schedule: Q01DX009 (ip), vehicle: saline with Tween-80.

Data on 18 compounds can be found in PubChem BioAssay AID192 (DTP/NCI, 2004).

Values joined by “and” are separate entries in the source; they are usually repeats but may differ in a detail not shown here. Equal entries are not always repeated. Inconclusive results and toxic doses are left out.

On to `OCCN1CCCN(CCCN2c3ccccc3Sc3ccc(C(F)(F)F)cc32)CC1`, for which the T/C (dose: 0.14 mg/kg/injection, schedule: Q04DX003 (ip), vehicle: saline) is 108 % of control; the T/C (dose: 0.29 mg/kg/injection, schedule: Q04DX003 (ip), vehicle: saline) is 100 % of control; the T/C (dose: 0.58 mg/kg/injection, schedule: Q01DX009 (ip), vehicle: saline) is 98 % of control; the T/C (dose: 0.58 mg/kg/injection, schedule: Q04DX003 (ip), vehicle: saline) was 99 % of control; the T/C (dose: 1.17 mg/kg/injection, schedule: Q01DX009 (ip), vehicle: saline) is 98 % of control; the T/C (dose: 1.17 mg/kg/injection, schedule: Q04DX003 (ip), vehicle: saline) is 104 % of control. Besides, the T/C reads like this: (dose: 2.34 mg/kg/injection, schedule: Q01DX009 (ip), vehicle: saline) 96 % of control; (dose: 2.34 mg/kg/injection, schedule: Q04DX003 (ip), vehicle: saline) 105 % of control and 116 % of control; (dose: 4.68 mg/kg/injection, schedule: Q01DX009 (ip), vehicle: saline) 90 % of control; (dose: 4.68 mg/kg/injection, schedule: Q04DX003 (ip), vehicle: saline) 122 % of control; (dose: 9.37 mg/kg/injection, schedule: Q04DX003 (ip), vehicle: saline) 119 % of control.

`O=C(CBr)CC(O)(C(F)(F)F)C(F)(F)F`: the T/C under setting [1] is 100 % of control; the T/C (dose: 0.75 mg/kg/injection, schedule: Q04DX003 (ip), vehicle: saline) was 97 % of control; the T/C (dose: 1.5 mg/kg/injection, schedule: Q01DX009 (ip), vehicle: saline) was 105 % of control; the T/C (dose: 1.5 mg/kg/injection, schedule: Q04DX003 (ip), vehicle: saline) is 100 % of control; the T/C under setting [2] was 94 % of control; the T/C (dose: 3.0 mg/kg/injection, schedule: Q04DX003 (ip), vehicle: saline) was 100 % of control and 105 % of control.

On to `CC1(C)N=C(N)N=C(N)N1c1ccc(Cl)cc1Cl`, for which the T/C reads like this: under setting [3], 108 % of control; under setting [4], 111 % of control; under setting [5], 123 % of control.

With `OC(CCN1CCCC1)(c1ccccc1)C1CCCCC1` (configuration not stated), the T/C under setting [6] is 101 % of control, the T/C under setting [4] was 98 % of control, the T/C under setting [5] was 93 % of control and the T/C under setting [7] was 87 % of control.

Take `Cc1c2cc[n+](C)c(C)c2cc2c1[nH]c1ccc(O)cc12`: the T/C by setting is: (dose: 2.5 mg/kg/injection, schedule: Q04DX003 (ip), vehicle: water) 117 % of control and 120 % of control; (dose: 10.0 mg/kg/injection, schedule: Q04DX003 (ip), vehicle: water) 150 % of control.

Regarding `CN1CCN(c2ccc([N+](=O)[O-])c3no[n+]([O-])c23)CC1`, the T/C was 111 % of control (dose: 5.0 mg/kg/injection, schedule: Q01DX009 (ip), vehicle: saline with Tween-80); 110 % of control (dose: 5.0 mg/kg/injection, schedule: Q01DX011 (ip), vehicle: saline with Tween-80); 107 % of control (dose: 10.0 mg/kg/injection, schedule: Q01DX009 (ip), vehicle: saline with Tween-80); 109 % of control (dose: 10.0 mg/kg/injection, schedule: Q01DX011 (ip), vehicle: saline with Tween-80).

`CCn1c(=O)c2[nH]c(Cl)nc2n(CC)c1=O`: the T/C (dose: 1.25 mg/kg/injection, schedule: Q## X032 (ip), vehicle: water) was 103 % of control; the T/C (dose: 2.5 mg/kg/injection, schedule: Q## X032 (ip), vehicle: water) was 101 % of control; the T/C (dose: 5.0 mg/kg/injection, schedule: Q## X032 (ip), vehicle: water) is 103 % of control; the T/C (dose: 10.0 mg/kg/injection, schedule: Q## X032 (ip), vehicle: water) was 97 % of control.

Regarding `C[C@@H]1C[C@@]2(C)[C@@H](CC[C@@H]3[C@@H]2CC[C@]2(C)[C@@H](OC4CCCCO4)CC[C@@H]32)CC1=O` (some centres not stated), the T/C is 105 % of control under setting [4], 100 % of control under setting [5] and 100 % of control under setting [7].

Take `NC(=O)c1ncn(C2OC(CO)C(O)C2O)n1` (configuration not stated): the T/C (dose: 20.0 mg/kg/injection, schedule: Q01DX009 (ip), vehicle: saline) was 90 % of control; the T/C (dose: 40.0 mg/kg/injection, schedule: Q01DX009 (ip), vehicle: saline) is 102 % of control; the T/C (dose: 50.0 mg/kg/injection, schedule: Q04DX003 (ip), vehicle: Klucel (hydroxypropylcellulose) (HPC)) is 102 % of control; the T/C (dose: 80.0 mg/kg/injection, schedule: Q01DX009 (ip), vehicle: saline) is 97 % of control; the T/C under setting [8] is 95 % of control; the T/C (dose: 160.0 mg/kg/injection, schedule: Q01DX009 (ip), vehicle: saline) is 108 % of control. For the same compound, the T/C under setting [9] was 98 % of control.

Turning to `[Br][Ga]([Br])[Br]`, the T/C reads like this: (dose: 12.5 mg/kg/injection, schedule: Q01DX009 (ip), vehicle: saline) 101 % of control; (dose: 25.0 mg/kg/injection, schedule: Q01DX009 (ip), vehicle: saline) 96 % of control; (dose: 50.0 mg/kg/injection, schedule: Q01DX009 (ip), vehicle: saline) 96 % of control.

`CCC(=O)Oc1ccc(OCc2ccccc2)cc1`: the T/C by setting is: under setting [8], 95 % of control; under setting [9], 86 % of control; (dose: 400.0 mg/kg/injection, schedule: Q04DX003 (ip), vehicle: Klucel (hydroxypropylcellulose) (HPC)) 97 % of control.

Take `Clc1ccc(Sc2ccc(Cl)cc2)cc1`: the T/C is 101 % of control under setting [10]; 95 % of control (dose: 200.0 mg/kg/injection, schedule: Q01DX009 (ip), vehicle: saline with Tween-80); 93 % of control (dose: 400.0 mg/kg/injection, schedule: Q01DX009 (ip), vehicle: saline with Tween-80).

For `C(/C=C/c1ccccc1)=Nc1ccc2c(c1)Cc1ccccc1-2`, the T/C was 96 % of control under setting [7]; 90 % of control (dose: 200.0 mg/kg/injection, schedule: Q01DX009 (ip), vehicle: Klucel (hydroxypropylcellulose) (HPC)); 87 % of control (dose: 400.0 mg/kg/injection, schedule: Q01DX009 (ip), vehicle: Klucel (hydroxypropylcellulose) (HPC)).

As for `O=C1OC(=O)C2C3C=CC(C3=C(c3ccccc3)c3ccccc3)C12` (configuration not stated), the T/C was 115 % of control (dose: 0.78 mg/kg/injection, schedule: Q04DX009 (ip), vehicle: Klucel (hydroxypropylcellulose) (HPC)); 121 % of control (dose: 1.56 mg/kg/injection, schedule: Q04DX009 (ip), vehicle: Klucel (hydroxypropylcellulose) (HPC)); 106 % of control (dose: 3.13 mg/kg/injection, schedule: Q04DX009 (ip), vehicle: Klucel (hydroxypropylcellulose) (HPC)).

For `Oc1ccc(Br)cc1-c1nc2cc(Cl)c(Cl)cc2nc1-c1cc(Br)ccc1O`, the T/C was 87 % of control under setting [4]; 86 % of control under setting [5]; 91 % of control and 94 % of control under setting [7].

With `O=C(NCCCCCCCCCCNC(=O)N1CC1)N1CC1`, the T/C by setting is: under setting [1], 115 % of control; under setting [2], 154 % of control.

Consider `O=C1CN(CCN2CC(=O)NC(=O)C2)CC(=O)N1`, for which the T/C was 115 % of control (dose: 15.0 mg/kg/injection, schedule: Q01DX009 (oral), vehicle: saline) and 122 % of control (dose: 30.0 mg/kg/injection, schedule: Q01DX009 (oral), vehicle: saline).

As for `CCc1c(CC(=O)O)c2cc(C)ccc2n1Cc1ccc(Cl)cc1`, the T/C was 110 % of control and 119 % of control (dose: 3.12 mg/kg/injection, schedule: Q01DX009 (ip), vehicle: Klucel (hydroxypropylcellulose) (HPC)); 106 % of control and 114 % of control under setting [6]; 91 % of control and 111 % of control under setting [3]; 88 % of control and 106 % of control and 97 % of control under setting [4]; 97 % of control (dose: 25.0 mg/kg/injection, schedule: Q01DX009 (ip), vehicle: saline with Tween-80); 101 % of control and 104 % of control and 105 % of control under setting [5]. Further, the T/C reads like this: (dose: 50.0 mg/kg/injection, schedule: Q01DX009 (ip), vehicle: saline with Tween-80) 97 % of control; (dose: 50.0 mg/kg/injection, schedule: Q04DX003 (ip), vehicle: saline with Tween-80) 104 % of control; under setting [7], 88 % of control and 95 % of control and 90 % of control; under setting [10], 88 % of control; (dose: 100.0 mg/kg/injection, schedule: Q04DX003 (ip), vehicle: saline with Tween-80) 88 % of control.
